Laboratory results as given in patent publication US12398255B2, “Biocompatible crosslinkers for controlled degradation of polymer hydrogels” (Saint Louis University, priority 2020, dated 2025).

Assay: Hydrogel degradation measured by swelling
Format: physicochemical
Conditions: pH 7.4
Protocol: Additionally, degradation was followed by measuring QM as a function of time. MS was measured at specific time points until gels lacked physical integrity. QM was calculated for each time point and normalized to the QM of the non-swollen network at time zero (MG/MD). Initial mesh size (ξ) and crosslink density (vc) were calculated via the Flory-[…] theory.

Substance: PEG-dithiolpropionate [PEG-DD2]
- Degradation Time: 8.0 ± 0.5 days
